Experimental findings from patent publication US9499550B2 (BRISTOL-MYERS SQUIBB COMPANY, priority 2012, dated 2016) are described below.

Molecules are shown by their SMILES. Where two headings read alike, the source gives them in different places.

The test system of assay [1] is HCV genotype 1b (Con1) replicon in HUH-7 cells. As to the kind of experiment: HCV replicon luciferase reporter assay, genotype 1b. It is filed as cell-based. The settings on record: Hepatitis C virus, Huh-7, 72 h, HCV genotype 1b replicon luciferase, 3 days incubation. The gist of the method:
(§1)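 Replicon inhibition for both genotypes was measured as Renilla luciferase signal (EnduRen, 7.5 μM final, 2 h) after 3-day, 37° C exposure of replicon-bearing HUH-7 cells in 4% FCS DMEM, 0.5% DMSO. The 1b construct carries S1179I; the 1a H77 construct carries P1496L and S2204I. Twenty-point, 3-fold dilutions were fitted four-parametrically for EC50, and CC50 was taken from multiplexed Cell Titer-Blue.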
A general note: Replicon systems follow genome replication, usually without infectious particles.

Assay [2] relates to HCV genotype 1a (H77 strain) replicon in HUH-7 cells. Put plainly: HCV replicon luciferase reporter assay, genotype 1a. The assay is classed as cell-based. Particulars: Hepatitis C virus, Huh-7, 72 h, HCV genotype 1a replicon luciferase, 3 days incubation. The gist of the method:
as §1

`CC[C@@H]1C[C@@H](C)CC/C=C\[C@@H]2C[C@@]2(C(=O)NS(=O)(=O)C2CC2)NC(=O)[C@@H]2C[C@@H](Oc3nccc4c5c(ccc34)OCCO5)CN2C(=O)[C@H]1NC(=O)OC(C)(C)C(C)(F)F` [Compound 5335, 3,3-difluoro-2-methylbutan-2-yl((2R,6S,7R,9S,13aS,14aR,16aS,Z)-14a-((cyclopropylsulfonyl)carbamoyl)-2-((2,3-dihydro-[1,4]dioxino[2,3-f]isoquinolin-7-yl)oxy)-7-ethyl-9-methyl-5,16-dioxo-1,2,3,5,6,7,8,9,10,11,13a,14,14a,15,16,16a-hexadecahydrocyclopropa[e]pyrrolo[1,2-a][1,4]diazacyclopentadecin-6-yl)carbamate]: the EC50 is 2.03 nM in assay [1] (read-out: LE_1b (EC50)); below 5.46 nM in assay [1] (read-out: LE_1b (EC50, range)); 6.5 nM in assay [2] (read-out: LE_1a (EC50)); 4.82 to 103 nM in assay [2] (read-out: LE_1a (EC50, range)).
Consider `CC[C@@H]1C[C@H](C)CC/C=C\[C@@H]2C[C@@]2(C(=O)NS(=O)(=O)C2CC2)NC(=O)[C@@H]2C[C@@H](Oc3nccc4c5c(ccc34)OCCO5)CN2C(=O)[C@H]1NC(=O)OC(C)(C)C(C)(F)F` [Compound 5336, 3,3-difluoro-2-methylbutan-2-yl((2R,6S,7R,9R,13aS,14aR,16aS,Z)-14a-((cyclopropylsulfonyl)carbamoyl)-2-((2,3-dihydro-[1,4]dioxino[2,3-f]isoquinolin-7-yl)oxy)-7-ethyl-9-methyl-5,16-dioxo-1,2,3,5,6,7,8,9,10,11,13a,14,14a,15,16,16a-hexadecahydrocyclopropa[e]pyrrolo[1,2-a][1,4]diazacyclopentadecin-6-yl)carbamate], for which the EC50 in assay [1] (read-out: LE_1b (EC50, range)) is below 5.46 nM; in assay [2] (read-out: LE_1a (EC50, range)), below 5.46 nM.
Consider `CC[C@@H]1C[C@@H](C)CC/C=C\[C@@H]2C[C@@]2(C(=O)NS(=O)(=O)C2CC2)NC(=O)[C@@H]2C[C@@H](Oc3nccc4c5c(ccc34)OCCO5)CN2C(=O)[C@H]1NC(=O)OC(C)(C)C(F)(F)F` [Compound 5337, 1,1,1-trifluoro-2-methylpropan-2-yl((2R,6S,7R,9S,13aS,14aR,16aS,Z)-14a-((cyclopropylsulfonyl)carbamoyl)-2-((2,3-dihydro-[1,4]dioxino[2,3-f]isoquinolin-7-yl)oxy)-7-ethyl-9-methyl-5,16-dioxo-1,2,3,5,6,7,8,9,10,11,13a,14,14a,15,16,16a-hexadecahydrocyclopropa[e]pyrrolo[1,2-a][1,4]diazacyclopentadecin-6-yl)carbamate], for which the EC50 in assay [1] (read-out: LE_1b (EC50, range)) was below 5.46 nM; in assay [2] (read-out: LE_1a (EC50, range)), 4.82 to 103 nM.
As to `CC[C@@H]1C[C@H](C)CC/C=C\[C@@H]2C[C@@]2(C(=O)NS(=O)(=O)C2CC2)NC(=O)[C@@H]2C[C@@H](Oc3nccc4c5c(ccc34)OCCO5)CN2C(=O)[C@H]1NC(=O)OC(C)(C)C(F)(F)F` [Compound 5338, 1,1,1-trifluoro-2-methylpropan-2-yl((2R,6S,7R,9R,13aS,14aR,16aS,Z)-14a-((cyclopropylsulfonyl)carbamoyl)-2-((2,3-dihydro-[1,4]dioxino[2,3-f]isoquinolin-7-yl)oxy)-7-ethyl-9-methyl-5,16-dioxo-1,2,3,5,6,7,8,9,10,11,13a,14,14a,15,16,16a-hexadecahydrocyclopropa[e]pyrrolo[1,2-a][1,4]diazacyclopentadecin-6-yl)carbamate], the EC50 was below 5.46 nM in assay [1] (read-out: LE_1b (EC50, range)) and below 5.46 nM in assay [2] (read-out: LE_1a (EC50, range)).
Consider `CC[C@@H]1C[C@@H](C)CC/C=C\[C@@H]2C[C@@]2(C(=O)NS(=O)(=O)C2(C)CC2)NC(=O)[C@@H]2C[C@@H](Oc3nccc4c5c(ccc34)OCCO5)CN2C(=O)[C@H]1NC(=O)OC(C)(C)C` [Compound 5339, tert-butyl ((2R,6S,7R,9S,13aS,14aR,16aS,Z)-2-((2,3-dihydro-[1,4]dioxino[2,3-f]isoquinolin-7-yl)oxy)-7-ethyl-9-methyl-14a-(((1-methylcyclopropyl)sulfonyl)carbamoyl)-5,16-dioxo-1,2,3,5,6,7,8,9,10,11,13a,14,14a,15,16,16a-hexadecahydrocyclopropa[e]pyrrolo[1,2-a][1,4]diazacyclopentadecin-6-yl)carbamate], for which the EC50 in assay [1] (read-out: LE_1b (EC50, range)) was below 5.46 nM; in assay [2] (read-out: LE_1a (EC50, range)) it was 4.82 to 103 nM.
For the compound `CC[C@@H]1C[C@H](C)CC/C=C\[C@@H]2C[C@@]2(C(=O)NS(=O)(=O)C2(C)CC2)NC(=O)[C@@H]2C[C@@H](Oc3nccc4c5c(ccc34)OCCO5)CN2C(=O)[C@H]1NC(=O)OC(C)(C)C` [Compound 5340, tert-butyl ((2R,6S,7R,9R,13aS,14aR,16aS,Z)-2-((2,3-dihydro-[1,4]dioxino[2,3-f]isoquinolin-7-yl)oxy)-7-ethyl-9-methyl-14a-(((1-methylcyclopropyl)sulfonyl)carbamoyl)-5,16-dioxo-1,2,3,5,6,7,8,9,10,11,13a,14,14a,15,16,16a-hexadecahydrocyclopropa[e]pyrrolo[1,2-a][1,4]diazacyclopentadecin-6-yl)carbamate], the EC50 in assay [1] (read-out: LE_1b (EC50, range)) is below 5.46 nM; in assay [2] (read-out: LE_1a (EC50, range)) it was below 5.46 nM.
For the compound `CC[C@@H]1C[C@H](C)CC/C=C\[C@@H]2C[C@@]2(C(=O)NS(=O)(=O)C2CC2)NC(=O)[C@@H]2C[C@@H](Oc3nccc4c5c(ccc34)OCCO5)CN2C(=O)[C@H]1NC(=O)OC(C)(C)C` [Compound 5341, tert-butyl ((2R,6S,7R,9R,13aS,14aR,16aS,Z)-14a-((cyclopropylsulfonyl)carbamoyl)-2-((2,3-dihydro-[1,4]dioxino[2,3-f]isoquinolin-7-yl)oxy)-7-ethyl-9-methyl-5,16-dioxo-1,2,3,5,6,7,8,9,10,11,13a,14,14a,15,16,16a-hexadecahydrocyclopropa[e]pyrrolo[1,2-a][1,4]diazacyclopentadecin-6-yl)carbamate], the EC50 in assay [1] (read-out: LE_1b (EC50, range)) was below 5.46 nM; in assay [2] (read-out: LE_1a (EC50, range)), below 5.46 nM.
In the case of `C[C@@H]1CC/C=C\[C@@H]2C[C@@]2(C(=O)NS(=O)(=O)C2(CF)CC2)NC(=O)[C@@H]2C[C@@H](Oc3nccc4c5c(ccc34)OCCO5)CN2C(=O)[C@@H](NC(=O)OC(C)(C)C(C)(F)F)[C@H](C)C1` [Compound 5342], the EC50 in assay [1] (GETYPE1B, read-out: LE_1b (EC50, range)) is below 5.46 nM; in assay [2] (GETYPE1A, read-out: LE_1a (EC50, range)), below 5.46 nM.
Take `COc1ccc2c(O[C@@H]3C[C@H]4C(=O)N[C@]5(C(=O)NS(=O)(=O)C6(C)CC6)C[C@H]5/C=C\CC[C@@H](C)C[C@@H](C)[C@H](NC(=O)OC(C)(C)C)C(=O)N4C3)nc(-c3ccc(OC(C)C)cc3)c(OC)c2c1` [Compound 5344, tert-butyl ((2R,6S,7R,9R,13aS,14aR,16aS,Z)-2-((3-(4-isopropoxyphenyl)-4,6-dimethoxyisoquinolin-1-yl)oxy)-7,9-dimethyl-14a-(((1-methylcyclopropyl)sulfonyl)carbamoyl)-5,16-dioxo-1,2,3,5,6,7,8,9,10,11,13a,14,14a,15,16,16a-hexadecahydrocyclopropa[e]pyrrolo[1,2-a][1,4]diazacyclopentadecin-6-yl)carbamate]: the EC50 is below 5.46 nM in assay [1] (read-out: LE_1b (EC50, range)) and below 5.46 nM in assay [2] (read-out: LE_1a (EC50, range)).
On to `COc1ccc2c(O[C@@H]3C[C@H]4C(=O)N[C@]5(C(=O)NS(=O)(=O)C6(C)CC6)C[C@H]5/C=C\CC[C@H](C)C[C@@H](C)[C@H](NC(=O)OC(C)(C)C(C)(F)F)C(=O)N4C3)nc(-c3ccc(OC(C)C)cc3)c(OC)c2c1` [Compound 5345, 3,3-difluoro-2-methylbutan-2-yl((2R,6S,7R,9S,13aS,14aR,16aS,Z)-2-((3-(4-isopropoxyphenyl)-4,6-dimethoxyisoquinolin-1-yl)oxy)-7,9-dimethyl-14a-(((1-methylcyclopropyl)sulfonyl)carbamoyl)-5,16-dioxo-1,2,3,5,6,7,8,9,10,11,13a,14,14a,15,16,16a-hexadecahydrocyclopropa[e]pyrrolo[1,2-a][1,4]diazacyclopentadecin-6-yl)carbamate], for which the EC50 in assay [1] (read-out: LE_1b (EC50, range)) is below 5.46 nM; in assay [2] (read-out: LE_1a (EC50, range)), 4.82 to 103 nM.
For the compound `COc1ccc2c(O[C@@H]3C[C@H]4C(=O)N[C@]5(C(=O)NS(=O)(=O)C6(C)CC6)C[C@H]5/C=C\CC[C@@H](C)C[C@@H](C)[C@H](NC(=O)OC(C)(C)C(C)(F)F)C(=O)N4C3)nc(-c3ccc(OC(C)C)cc3)c(OC)c2c1` [Compound 5346, 3,3-difluoro-2-methylbutan-2-yl((2R,6S,7R,9R,13aS,14aR,16aS,Z)-2-((3-(4-isopropoxyphenyl)-4,6-dimethoxyisoquinolin-1-yl)oxy)-7,9-dimethyl-14a-(((1-methylcyclopropyl)sulfonyl)carbamoyl)-5,16-dioxo-1,2,3,5,6,7,8,9,10,11,13a,14,14a,15,16,16a-hexadecahydrocyclopropa[e]pyrrolo[1,2-a][1,4]diazacyclopentadecin-6-yl)carbamate], the EC50 in assay [1] (read-out: LE_1b (EC50, range)) is below 5.46 nM; in assay [2] (read-out: LE_1a (EC50, range)) it was below 5.46 nM.
On to `COc1ccc2c(O[C@@H]3C[C@H]4C(=O)N[C@]5(C(=O)NS(=O)(=O)C6(C)CC6)C[C@H]5/C=C\CC[C@@H](C)C[C@@H](C)[C@H](NC(=O)OC(C)(C)C(F)(F)F)C(=O)N4C3)nc(-c3ccc(OC(C)C)cc3)c(OC)c2c1` [Compound 5348, 1,1,1-trifluoro-2-methylpropan-2-yl((2R,6S,7R,9R,13aS,14aR,16aS,Z)-2-((3-(4-isopropoxyphenyl)-4,6-dimethoxyisoquinolin-1-yl)oxy)-7,9-dimethyl-14a-(((1-methylcyclopropyl)sulfonyl)carbamoyl)-5,16-dioxo-1,2,3,5,6,7,8,9,10,11,13a,14,14a,15,16,16a-hexadecahydrocyclopropa[e]pyrrolo[1,2-a][1,4]diazacyclopentadecin-6-yl)carbamate], for which the EC50 in assay [1] (read-out: LE_1b (EC50, range)) was below 5.46 nM; in assay [2] (read-out: LE_1a (EC50, range)), below 5.46 nM.

By EC50 is commonly meant the concentration needed to bring the measured effect to its halfway point.
